Experimental data: publication PMC9127252, “Synthesis of sulfur karrikin bioisosteres as potential neuroprotectives” (Beilstein Journal of Organic Chemistry, 2022)

Tests used:
AChE = system: AChE; design: method as in PMID 31014820; details: cited from earlier work; for inhibition effects on AChE: in words
MAO-B = system: MAO-B; design: method as in PMID 31014820; details: cited from earlier work
seed germination = system: seed germination; design: method as in doi:10.1016/j.sajb.2013.12.003; details: compared with KAR1; cited from earlier work
[1] = biological target: T1, AChE from Electrophorus electricus (Electrophorus electricus, UniProt O42275); assay: biochemical; details: for AChE residual activity at 10 µM (% of untreated): 10 µM compound, t = 25 min, triplicates, mean ± SD; for inhibition at 10 µM: read-out: AChE inhibition at 10 µM screening concentration
T1 construct: purchased Sigma-Aldrich, Germany
Method: The compounds were further tested for their ability to inhibit AChE in vitro [24].
Acetylcholine esterase (AChE) assay
Determination of AChE activity was based on the original method by Ellman adapted for 384 well plate format. The plates were first pre-spotted with 20 nL of 10 mM DMSO solution of the compound with the use of ECHO 550® liquid handler (to reach 10 µM final concentration). Master mix solution was prepared alongside and kept on ice until dispensed in the wells. The mix consisted of 1.5 mM acetylthiocholine iodide (ATCI), 1.5 mM 5,5-dithiobis(2-nitrobenzoic acid) (DTNB) and 30 mU/mL AChE from Electrophorus electricus (Sigma-Aldrich, Germany) in 50 mM TRIS-Cl buffer, pH 7.5, containing 0.04% BSA, 50 mM NaCl and 10 mM MgCl2. 20 µL of the master mix was then dispensed into the wells of a transparent flat-bottom 384-well plate (Nunc). The microplate was briefly but vigorously mixed on an orbital shaker and placed into a Tecan SPARK microplate reader where the absorbance at 405 nm was continuously monitored for 25 min (linear range). In parallel, the no-enzyme control reaction was run to exclude interference of the compounds with the assay. The background value was subtracted from the signal of the enzyme-containing wells. Enzyme inhibition was expressed as a signal percentage compared to an uninhibited reaction at t = 25 min: % residual activity = (A405 sample/A405 control) × 100. […]
were analysed with the use of Prism 9 (GraphPad Inc., San Diego, USA). The values were measured in triplicates, and the results are p resented as means ± SD. […]

T1 sequence (O42275 24-633): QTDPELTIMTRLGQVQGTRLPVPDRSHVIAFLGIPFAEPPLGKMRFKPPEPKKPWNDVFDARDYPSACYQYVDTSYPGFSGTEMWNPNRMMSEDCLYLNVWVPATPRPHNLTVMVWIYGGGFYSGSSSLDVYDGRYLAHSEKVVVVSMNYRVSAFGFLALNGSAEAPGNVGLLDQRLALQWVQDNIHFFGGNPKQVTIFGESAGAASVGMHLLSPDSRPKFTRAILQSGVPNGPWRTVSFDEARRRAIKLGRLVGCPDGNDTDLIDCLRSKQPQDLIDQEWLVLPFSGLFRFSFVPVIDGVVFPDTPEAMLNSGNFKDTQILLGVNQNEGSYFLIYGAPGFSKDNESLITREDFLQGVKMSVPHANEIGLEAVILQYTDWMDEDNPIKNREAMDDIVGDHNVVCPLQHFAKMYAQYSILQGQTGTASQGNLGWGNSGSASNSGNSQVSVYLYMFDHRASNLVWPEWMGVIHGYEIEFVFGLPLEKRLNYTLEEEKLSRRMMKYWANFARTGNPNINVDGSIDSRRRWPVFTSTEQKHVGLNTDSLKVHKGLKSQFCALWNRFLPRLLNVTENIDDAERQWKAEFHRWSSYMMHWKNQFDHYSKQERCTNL

Structure (SMILES)	AChE residual activity at 10 µM (% of untreated) [1]	other results
Cc1cc2c(C)c(=O)oc-2co1 [Compound 3, reference compound]		IC50 (AChE): 370 ± 20 nM; inhibition effects on AChE (AChE): submicromolar
Cc1c2ccscc-2oc1=O [Compound 8, 3-methyl-2H-thiopyrano[3,4-b]furan-2-one]		IC50 (AChE): 80 ± 6 nM; inhibition effects on AChE (AChE): submicromolar; IC50 (MAO-B): 30 nM; germination activity (seed germination): lower germination activity than KAR1
Cc1c2ccocc-2oc1=S [Compound 9]	95 ± 8 % of untreated	
S=c1cc2ccocc-2o1 [Compound 10]	99 ± 3 % of untreated	
Cc1cc2c(C)c(=S)oc-2co1 [Compound 11]	93 ± 3 % of untreated	
Cc1occc2c(C)c(=S)oc1-2 [Compound 12]	91 ± 2 % of untreated	
Cc1cc2c(C)c(=O)oc-2cs1 [Compound 20]	90 ± 2 % of untreated	
Cc1sccc2c(C)c(=O)oc1-2 [Compound 21]	91 ± 2 % of untreated	
O=c1cc2ccscc-2o1 [Compound 26]	99 ± 0.4 % of untreated	
Cc1c2ccscc-2oc1=S [Compound 27]	97 ± 5 % of untreated	
Cc1cc2c(C)c(=S)oc-2cs1 [Compound 28]	85 ± 1 % of untreated	inhibition at 10 µM [1]: ~15%
Cc1sccc2c(C)c(=S)oc1-2 [Compound 29]	86 ± 2 % of untreated	inhibition at 10 µM [1]: ~15%
S=c1cc2ccscc-2o1 [Compound 30]	92 ± 1 % of untreated	
